According to US11851440B2, “Modulators of eukaryotic initiation factor 2B, compositions and methods” (Denali Therapeutics Inc., priority 2017, dated 2023):

The molecules below were run on ISR pathway (ATF4 translation) (assay: ATF4 Nano Luciferase reporter integrated stress response (ISR) assay in H4 ATF4-NLuc cells). Conditions: Homo sapiens, H4 ATF4-NLuc (clone 17) cells; compound 30 minutes, then 50 um sodium arsenite for 6 hours; luminescence readout.

Row | IC50 [nM] | SMILES
1 | 22 | O=C(CO[C@H]1C[C@@H](OC(F)(F)F)C1)NC12CC(n3cnc(-c4ccc(F)cc4)c3)(C1)C2 [Example 136]
2 | 7.5 | O=C(CO[C@H]1C[C@@H](OC(F)(F)F)C1)NC12CC(n3cnc(-c4c(F)cc(Cl)cc4F)c3)(C1)C2 [Example 269]

Same assay, conditions: Homo sapiens, read-out: Activity (IC50), H4 ATF4-NLuc (clone 17) cells; compound 30 minutes, then 50 um sodium arsenite for 6 hours; luminescence readout

Row | IC50 [nM] | SMILES
3 | < 1000 | O=C(NC12CC(c3nnc([C@H]4C[C@@H](OC(F)(F)F)C4)o3)(C1)C2)c1cn2cc(F)c(Cl)cc2n1 [Example 194]
4 | < 1000 | O=C(NC12CC(c3nnc([C@H]4C[C@@H](OC(F)(F)F)C4)o3)(C1)C2)c1cnc2ccccc2n1 [Example 188]
5 | < 1000 | O=C(CO[C@H]1C[C@@H](OC(F)(F)F)C1)NC12CC(c3nnc(-c4ccc(C(F)(F)F)cn4)o3)(C1)C2 [Example 199]
6 | < 1000 | O=C(COc1ccc(F)cc1)NC12CC(c3nnc([C@H]4C[C@@H](OC(F)(F)F)C4)o3)(C1)C2 [Example 71, 2-(4-fluorophenoxy)-N-[3-[5-[3-cis-(trifluoromethoxy)cyclobutyl]-1,3,4-oxadiazol-2-yl]-1-bicyclo[1.1.1]pentanyl]acetamide]
7 | < 1000 | O=C(CO[C@H]1C[C@@H](OC(F)(F)F)C1)NC12CC(c3cc(-c4ccc(Cl)cc4)no3)(C1)C2 [Example 251]
8 | < 1000 | O=C(COc1ccc(Cl)c(F)c1)NC12CC(C3=NOC(C4CCCC4)C3)(C1)C2 (centres unmarked) [Example 21, 2-(4-chloro-3-fluorophenoxy)-N-(3-(5-cyclopentyl-4,5-dihydroisoxazol-3-yl)bicyclo[1.1.1]pentan-1-yl)acetamide]
9 | < 1000 | O=C(NC12CC(c3nnc([C@H]4C[C@@H](OC(F)(F)F)C4)o3)(C1)C2)c1cc2ccc(Cl)cn2n1 [Example 171]
10 | < 1000 | O=C(COc1ccc(Cl)cc1)NC12CC(N3CC(C4CCC4)=CC3=O)(C1)C2 [Example 214]
11 | < 1000 | O=C(COc1ccc(Cl)c(F)c1)NC12CC(c3cn(Cc4ccccc4)nn3)(C1)C2 [Example 58]
12 | < 1000 | O=C(COc1ccc(Cl)c(F)c1)NC12CC(n3cnc([C@H]4C[C@H](OC(F)(F)F)C4)c3)(C1)C2 [Example 62, 2-(4-chloro-3-fluoro-phenoxy)-N-[3-[4-[3-trans-(trifluoromethoxy)cyclobutyl]imidazol-1-yl]-1-bicyclo[1.1.1]pentanyl]acetamide]
13 | < 1000 | CC(N1CC(c2nnc(C34CC(NC(=O)COc5ccc(Cl)c(F)c5)(C3)C4)o2)C1)C(F)(F)F (centres unmarked) [Example 123, 2-(4-chloro-3-fluoro-phenoxy)-N-[3-[5-[1-(2,2,2-trifluoro-1-methyl-ethyl)azetidin-3-yl]-1,3,4-oxadiazol-2-yl]-1-bicyclo[1.1.1]pentanyl]acetamide]
14 | < 1000 | O=C(CO[C@H]1C[C@@H](OC(F)(F)F)C1)NC12CC(c3cc(-c4ccc(Cl)cc4F)no3)(C1)C2 [Example 252]
15 | < 1000 | Cc1cc(-c2cn(C34CC(NC(=O)CO[C@H]5C[C@@H](OC(F)(F)F)C5)(C3)C4)cn2)ccc1F [Example 147]
16 | < 1000 | O=C(COc1ccc(Cl)c(F)c1)NC12CC(c3nnc(CC4CC4)o3)(C1)C2 [Example 11, 2-(4-chloro-3-fluoro-phenoxy)-N-[1-[5-(cyclopropylmethyl)-1,3,4-oxadiazol-2-yl]-3-bicyclo[1.1.1]pentanyl]acetamide]
17 | < 1000 | O=C(COc1ccc(Cl)cc1)NC12CC(N3CC(CC(F)(F)F)CC3=O)(C1)C2 (centres unmarked) [Example 210]
18 | < 1000 | O=C(NC12CC(c3nnc(C4CC(OC(F)(F)F)C4)o3)(C1)C2)C(CO)Oc1ccc(Cl)cc1 (centres unmarked) [Example 232]
19 | < 1000 | O=C(CO[C@H]1C[C@@H](OC(F)(F)F)C1)NC12CC(n3cnc(-c4ccc(F)cc4)c3)(C1)C2 [Example 136]
20 | < 1000 | O=C(COc1ccc(Cl)c(F)c1)NC12CC(c3nnc(C4C[C@H]4COC(F)(F)F)o3)(C1)C2 (single isomer, unassigned) [Example 82, 2-(4-chloro-3-fluoro-phenoxy)-N-[3-[5-[2-trans-(trifluoromethoxymethyl)cyclopropyl]-1,3,4-oxadiazol-2-yl]-1-bicyclo[1.1.1]pentanyl]acetamide]
21 | 1000 to 10000 | C#CC12CC(NC(=O)COc3ccc(Cl)c(F)c3)(C1)C2 [Example 31, 2-(4-chloro-3-fluorophenoxy)-N-(3-ethynylbicyclo[1.1.1]pentan-1-yl)acetamide]
22 | 1000 to 10000 | O=C(COC1CC2C(C1)C2(F)F)NC12CC(c3nnc([C@H]4C[C@@H](OC(F)(F)F)C4)o3)(C1)C2 (stereo partly drawn) [Example 83, 2-[(6,6-difluoro-3-bicyclo[3.1.0]hexanyl)oxy]-N-[3-[5-[3-cis-(trifluoromethoxy)cyclobutyl]-1,3,4-oxadiazol-2-yl]-1-bicyclo[1.1.1]pentanyl]acetamide]
23 | < 1000 | O=C(COc1ccc(Cl)c(F)c1)NC12CC(C3=NOC(C4CCC4)C3)(C1)C2 (centres unmarked) [Example 23, 2-(4-chloro-3-fluorophenoxy)-N-(3-(5-cyclobutyl-4,5-dihydroisoxazol-3-yl)bicyclo[1.1.1]pentan-1-yl)acetamide]
24 | < 1000 | O=C(COc1ccc(Cl)c(F)c1)NC12CC(c3nnc([C@H]4C[C@@H](n5ccnn5)C4)o3)(C1)C2 [Example 245]
25 | < 1000 | O=C(NC12CC(c3nnc([C@H]4C[C@@H](OC(F)(F)F)C4)o3)(C1)C2)c1ncc2cc(Cl)ccc2n1 [Example 195]
26 | < 1000 | O=C(CO[C@H]1C[C@@H](OC(F)(F)F)C1)NC12CC(n3cnc(-c4c(F)cc(Cl)cc4F)c3)(C1)C2 [Example 269]
27 | < 1000 | O=C(CO[C@H]1C[C@@H](OC(F)(F)F)C1)NC12CC(n3cnc(-c4cc(F)c(Cl)cc4F)c3)(C1)C2 [Example 271]

Row | SMILES | IC50 [nM]
28 | O=C(CO[C@H]1C[C@@H](OC(F)(F)F)C1)NC12CC(c3nnc(-c4cncc(F)c4)o3)(C1)C2 [Example 73, N-[1-[5-(5-fluoro-3-pyridyl)-1,3,4-oxadiazol-2-yl]-3-bicyclo[1.1.1]pentanyl]-2-[3-cis-(trifluoromethoxy)cyclobutoxy]acetamide] | 1000 to 10000
29 | O=C(CO[C@H]1C[C@@H](OC(F)(F)F)C1)NC12CC(c3nnc(COc4ccc(Cl)c(F)c4)o3)(C1)C2 [Example 41, N-[1-[5-[(4-chloro-3-fluoro-phenoxy)methyl]-1,3,4-oxadiazol-2-yl]-3-bicyclo[1.1.1]pentanyl]-2-cis-[3-(trifluoromethoxy)cyclobutoxy]acetamide] | < 1000
30 | O=C(CO[C@H]1C[C@@H](OC(F)(F)F)C1)NC12CC(c3nnc(C4CC(COC(F)(F)F)C4)o3)(C1)C2 (stereo partly drawn) [Example 107, 2-[3-cis-(trifluoromethoxy)cyclobutoxy]-N-[3-[5-[3-trans-(trifluoromethoxymethyl)cyclobutyl]-1,3,4-oxadiazol-2-yl]-1-bicyclo[1.1.1]pentanyl]acetamide] | < 1000
31 | O=C(CO[C@H]1C[C@@H](OC(F)(F)F)C1)NC12CC(c3nnc(-c4ccc(Cl)c(F)c4)o3)(C1)C2 [Example 12, N-[3-[5-(4-chloro-3-fluoro-phenyl)-1,3,4-oxadiazol-2-yl]-1-bicyclo[1.1.1]pentanyl]-2-[cis-3-(trifluoromethoxy)cyclobutoxy]acetamide] | < 1000

Same assay, conditions: read-out: Activity (IC50); H4 ATF4-NLuc (clone 17) cells; compound 30 minutes, then 50 um sodium arsenite for 6 hours; luminescence readout

Row | SMILES | IC50 [nM]
32 | O=C(COC1CC(OC(F)(F)F)C1)NC12CC(c3nnc(C4C[C@H]4COC(F)(F)F)o3)(C1)C2 (single isomer, unassigned) [Example 90, 2-[cis-3-(trifluoromethoxy)cyclobutoxy]-N-[3-[5-[cis-2-(trifluoromethoxymethyl)cyclopropyl]-1,3,4-oxadiazol-2-yl]-1-bicyclo[1.1.1]pentanyl]acetamide] | > 10000
